For the assay, the target named is T1, XynSPP2 (Labilibaculum antarcticum, UniProt A0A1Y1CHM8).
T1 construct: gene ALGA_1465; residues 25-450, signal peptide (24 residues) removed, Fn3 + GH10 domains; 34-residue N-terminal pET-28a tag kept; E. coli BL21(DE3)
As to the kind of experiment: TLC of hydrolysis products. The assay is classed as biochemical. The conditions noted are these: 20 uM substrate, citrate-phosphate pH 6.5.

Structures are written as SMILES.

T1 sequence (A0A1Y1CHM8 entry or part of it): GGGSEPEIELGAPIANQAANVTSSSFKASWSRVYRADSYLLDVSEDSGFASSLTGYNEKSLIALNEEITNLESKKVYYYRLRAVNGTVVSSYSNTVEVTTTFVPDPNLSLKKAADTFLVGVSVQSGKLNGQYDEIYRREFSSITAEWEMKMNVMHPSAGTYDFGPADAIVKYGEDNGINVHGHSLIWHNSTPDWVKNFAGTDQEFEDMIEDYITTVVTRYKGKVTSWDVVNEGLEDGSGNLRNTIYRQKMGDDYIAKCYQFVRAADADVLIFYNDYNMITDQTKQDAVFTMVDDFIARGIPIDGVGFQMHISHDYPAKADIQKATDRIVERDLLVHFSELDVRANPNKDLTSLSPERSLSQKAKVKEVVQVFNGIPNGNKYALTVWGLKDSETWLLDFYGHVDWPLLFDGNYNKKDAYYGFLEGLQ

On to `OC1OC[C@@H](O[C@@H]2OC[C@@H](O[C@@H]3OC[C@@H](O[C@@H]4OC[C@@H](O)[C@H](O)[C@H]4O)[C@H](O)[C@H]3O)[C@H](O)[C@H]2O)[C@H](O)[C@H]1O` (some centres unmarked) [X4, xylotetraose], for which the “TLC of hydrolysis products” value is “XynSPP2 hydrolyzed xylotetraose to xylotriose (major) and xylobiose”. `OC1OC[C@@H](O[C@@H]2OC[C@@H](O[C@@H]3OC[C@@H](O[C@@H]4OC[C@@H](O[C@@H]5OC[C@@H](O)[C@H](O)[C@H]5O)[C@H](O)[C@H]4O)[C@H](O)[C@H]3O)[C@H](O)[C@H]2O)[C@H](O)[C@H]1O` (some centres unmarked) [X5, xylopentaose]: the “TLC of hydrolysis products” value was “Degradations of xylopentaose and xylohexaose by XynSPP2 were largely similar”.

For the origin of these results see PMC6614494, “Molecular and Biochemical Characterization of a Bimodular Xylanase From Marinifilaceae Bacterium Strain SPP2” (Frontiers in Microbiology, 2019).
